Assay results as given in the supplement of paper PMC11061612.

Key:
Assay in all cases: Bliss excess, mean over the matrix (fraction); higher = more synergy
[1] = test system: WM793B (Melanoma)
In short: (§1)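 Cell lines in DMEM/F12 or RPMI with 10% FBS were plated in 1536-well plates, held 24 hours at 37°C, 5% CO2, then given two-drug dose matrices for 72 hours (DMSO typically 0.2%). Viability was read by CellTiter-Glo 2.0 luminescence and scaled as inhibition from 0 (vehicle wells) to 1 (blank wells). Combination Emax is the second-highest inhibition in the matrix; Bliss excess is observed combination effect minus expected EA + EB − EA·EB, EA and EB being single-agent effects.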

[2] = test system: MKN45 (Gastric Carcinoma)
In short: as §1

[3] = test system: NCI-H23 (Lung Adenocarcinoma)
In short: as §1

[4] = test system: GP5d (Colorectal Carcinoma)
In short: as §1

[5] = test system: RCM-1 (Colorectal Carcinoma)
In short: as §1

[6] = test system: VAL (B-Cell Non-Hodgkin's Lymphoma)
In short: as §1

[7] = test system: LN-229 (Glioblastoma)
In short: as §1

[8] = test system: 23132-87 (Gastric Carcinoma)
In short: as §1

[9] = test system: PANC-03-27 (Pancreatic Carcinoma)
In short: as §1

[10] = test system: TE-8 (Esophageal Squamous Cell Carcinoma)
In short: as §1

[11] = test system: LXF-289 (Lung Adenocarcinoma)
In short: as §1

[12] = test system: SU-DHL-10 (B-Cell Non-Hodgkin's Lymphoma)
In short: as §1

[13] = test system: LK-2 (Squamous Cell Lung Carcinoma)
In short: as §1

[14] = test system: MFE-280 (Endometrial Carcinoma)
In short: as §1

[15] = test system: PC-3_[JPC-3] (Lung Adenocarcinoma)
In short: as §1

[16] = test system: RKN (Other Solid Carcinomas)
In short: as §1

[17] = test system: COLO-680N (Esophageal Squamous Cell Carcinoma)
In short: as §1

[18] = test system: OPM-2 (Plasma Cell Myeloma)
In short: as §1

[19] = test system: SF268 (Low Grade Glioma)
In short: as §1

[20] = test system: FADU (Head and Neck Carcinoma)
In short: as §1

Compound	Bliss excess [1]	Bliss excess [2]	Bliss excess [3]	Bliss excess [4]	Bliss excess [5]	Bliss excess [6]	Bliss excess [7]	Bliss excess [8]	Bliss excess [9]	Bliss excess [10]	Bliss excess [11]	Bliss excess [12]	Bliss excess [13]	Bliss excess [14]	Bliss excess [15]	Bliss excess [16]	Bliss excess [17]	Bliss excess [18]	Bliss excess [19]	Bliss excess [20]
COc1nnc2ccc(N3CCC(c4ccc(OCCN5CCN(C)C(=O)[C@H]5C)cc4)CC3)nn12 [AZD5153] + Cn1cnc2c(F)c(Nc3ccc(Br)cc3Cl)c(C(=O)NOCCO)cc21 [Selumetinib] (first compound max 1 µM, 7x7, partner max 10 µM)	-0.074	-0.0237	-0.0027	-0.0805	-0.008	-0.0157	-0.0426	-0.036	0.0131	0.032	-0.0468	0.0107	0.0918	0.0114	0.0189	-0.0073	0.0131	-0.0136	-0.0504	-0.015
Cc1c2c(nn1C)CSCc1cc(n(C)n1)CSc1cc(c3ccccc3c1)OCCCc1c(C(=O)O)n(C)c3c-2c(Cl)ccc13 [AZD5991] + C1CN(CCC1(C(=O)N[C@@H](CCO)C2=CC=C(C=C2)Cl)N)C3=NC=NC4=C3C=CN4 [Capivasertib] (first compound max 1 µM, 7x7, partner max 3 µM)	0.0045	-0.0262	-0.0276	-0.0493	0.0005	-0.0223	0.0178	-0.0492	0.002	0.0306	0.042	-0.0047	-0.0103	0.027	-0.0062	-0.0234	-0.0223	-0.0121	-0.008	0.0213
Cc1c2c(nn1C)CSCc1cc(n(C)n1)CSc1cc(c3ccccc3c1)OCCCc1c(C(=O)O)n(C)c3c-2c(Cl)ccc13 [AZD5991] + C=CCn1c(=O)c2cnc(Nc3ccc(N4CCN(C)CC4)cc3)nc2n1-c1cccc(C(C)(C)O)n1 [AZD1775] (first compound max 1 µM, partner max 1 µM)	0.0054	-0.0456	-0.0174	-0.0133	-0.0271	-0.114	0.0754	0.0274	0.0186	-0.058	-0.029	0.0259	-0.0217	0.0045	0.005	-0.0446	0.0254	-0.0119	0.0045	-0.0016
Cc1c2c(nn1C)CSCc1cc(n(C)n1)CSc1cc(c3ccccc3c1)OCCCc1c(C(=O)O)n(C)c3c-2c(Cl)ccc13 [AZD5991] + CC1(C)CCC(CN2CCN(c3ccc(C(=O)NS(=O)(=O)c4ccc(NCC5CCOCC5)c([N+](=O)[O-])c4)c(Oc4cnc5[nH]ccc5c4)c3)CC2)=C(c2ccc(Cl)cc2)C1 [Venetoclax] (first compound max 1 µM, 7x7, partner max 1 µM)	-0.0016	-0.0206	-0.0077	-0.0134	0.0136	0.0963	-0.0271	0.0019	-0.0397	0.0098	0.0108	-0.0173	0.0293	-0.0225	-0.0503	-0.0337	-0.0255	0.0217	-0.0096	-0.0231
Cc1c2c(nn1C)CSCc1cc(n(C)n1)CSc1cc(c3ccccc3c1)OCCCc1c(C(=O)O)n(C)c3c-2c(Cl)ccc13 [AZD5991] + CCN(CCO)CCCOc1ccc2c(Nc3cc(CC(=O)Nc4cccc(F)c4)[nH]n3)ncnc2c1 [AZD2811] (first compound max 1 µM, 7x7, partner max 1 µM)	0.0264	-0.0123	0.0222	-0.0319	-0.0249	-0.0541	0.0043	-0.0075	0.0566	-0.0138	0.0912	-0.0133	-0.0115	0.053	-0.0049	-0.0015	0.007	0.0578	0.0835	0.132
Cc1c2c(nn1C)CSCc1cc(n(C)n1)CSc1cc(c3ccccc3c1)OCCCc1c(C(=O)O)n(C)c3c-2c(Cl)ccc13 [AZD5991] + CN(C)CCCOc1ccc(-c2ccc3ncc4c(c3c2)n(C2CCOCC2)c(=O)n4C)cn1 [AZD0156] (first compound max 1 µM, 7x7, partner max 1 µM)	-0.0312	-0.0594	-0.0201	-0.0201	-0.0105	-0.0034	0.0024	-0.0643	-0.0201	-0.0172	0.0472	-0.0258	0.0039	-0.0159	-0.0156	0.0006	0.0049	-0.0241	0.0324	0.0409
Cc1c2c(nn1C)CSCc1cc(n(C)n1)CSc1cc(c3ccccc3c1)OCCCc1c(C(=O)O)n(C)c3c-2c(Cl)ccc13 [AZD5991] + C[C@@H]1COCCN1C2=NC(=NC(=C2)C3(CC3)[S@](=N)(=O)C)C4=C5C=CNC5=NC=C4 [AZD6738] (first compound max 1 µM, 7x7, partner max 10 µM)	0.0503	-0.0812	-0.0037	0.002	-0.0371	-0.0898	0.0344	-0.009	0.0059	0.0197	0.0667	-0.0128	0.0146	0.0388	0.0547	0.0098	0.0186	0.0291	0.0188	0.0284
Cc1c2c(nn1C)CSCc1cc(n(C)n1)CSc1cc(c3ccccc3c1)OCCCc1c(C(=O)O)n(C)c3c-2c(Cl)ccc13 [AZD5991] + C[C@@H](Nc1cc(F)cc(F)c1)c1cc(C(=O)N(C)C)cc2c(=O)cc(N3CCOCC3)oc12 [AZD8186] (first compound max 1 µM, 7x7, partner max 3 µM)	0.0512	-0.0777	-0.0085	-0.0645	-0.0102	0.0426	-0.0063	-0.0603	-0.0432	-0.013	-0.0127	0.0239	0.0056	0.0185	0.0031	-0.0269	0.0001	-0.0104	-0.0095	0.0315
Cc1c2c(nn1C)CSCc1cc(n(C)n1)CSc1cc(c3ccccc3c1)OCCCc1c(C(=O)O)n(C)c3c-2c(Cl)ccc13 [AZD5991] + Cn1cnc2c(F)c(Nc3ccc(Br)cc3Cl)c(C(=O)NOCCO)cc21 [Selumetinib] (first compound max 1 µM, 7x7, partner max 3 µM)	-0.0053	-0.0643	0.0495	0.0017	0.0025	-0.0227	0.0485	0.0334	-0.0414	-0.0435	0.0414	-0.021	-0.0063	0.0226	-0.0477	-0.0147	-0.0091	0.0231	-0.0199	0.0722
C[C@@H]1COCCN1c1cc(C2([S@](C)(=N)=O)CC2)nc(-c2ccnc3[nH]ccc23)n1 [AZD6738] + O=C(c1cc(Cc2n[nH]c(=O)c3ccccc23)ccc1F)N1CCN(C(=O)C2CC2)CC1 [Olaparib] (first compound max 10 µM, 7x7, partner max 10 µM)	-0.0214	-0.0683	0.0049	-0.0092	-0.101	-0.0708	-0.0713	0.0507	0.0141	-0.0218	-0.0371	-0.0235	0.0091	0.0368	0.0112	-0.007	0.0109	-0.0339	0.0011	0.0098
Cc1cc2ncnn2cc1Nc1ncc2c(n1)n(C1CCOCC1)c(=O)n2C [AZD7648] + C=CCn1c(=O)c2cnc(Nc3ccc(N4CCN(C)CC4)cc3)nc2n1-c1cccc(C(C)(C)O)n1 [AZD1775] (first compound max 10 µM, partner max 1 µM)	-0.0395	-0.0887	-0.0363	-0.0431	0.0248	-0.0919	-0.0067	-0.0401	-0.048	0.0308	-0.0396	-0.0191	-0.0018	-0.0406	0.0063	0.0089	-0.012	-0.0006	0.0296	-0.0112
Cc1cc2ncnn2cc1Nc1ncc2c(n1)n(C1CCOCC1)c(=O)n2C [AZD7648] + CCN(CCO)CCCOc1ccc2c(Nc3cc(CC(=O)Nc4cccc(F)c4)[nH]n3)ncnc2c1 [AZD2811] (first compound max 10 µM, 7x7, partner max 1 µM)	-0.0038	-0.0635	0.016	0.0648	-0.032	-0.0799	0.0148	-0.0151	-0.0255	0.0717	0.0397	-0.0765	-0.0328	0.019	-0.0044	-0.0148	-0.0458	0.0791	0.0023	0.0177
Cc1cc2ncnn2cc1Nc1ncc2c(n1)n(C1CCOCC1)c(=O)n2C [AZD7648] + CN(C)CCCOc1ccc(-c2ccc3ncc4c(c3c2)n(C2CCOCC2)c(=O)n4C)cn1 [AZD0156] (first compound max 10 µM, 7x7, partner max 1 µM)	-0.029	-0.0268	-0.0031	-0.0119	-0.0041	-0.0921	-0.0161	-0.0108	0.0421	-0.0453	0.034	0.001	-0.0036	0.0058	-0.0019	-0.0352	-0.0078	-0.0303	0.0098	-0.0048
Cc1cc2ncnn2cc1Nc1ncc2c(n1)n(C1CCOCC1)c(=O)n2C [AZD7648] + C[C@@H]1COCCN1C2=NC(=NC(=C2)C3(CC3)[S@](=N)(=O)C)C4=C5C=CNC5=NC=C4 [AZD6738] (first compound max 10 µM, 7x7, partner max 10 µM)	-0.0352	-0.0406	-0.0617	-0.0401	0.0223	-0.0813	-0.0085	-0.0027	0.0016	-0.0122	0.0315	-0.0398	0.0147	0.0174	0.0627	0.0086	0.0237	0.0254	0.0152	-0.0093
Cc1cc2ncnn2cc1Nc1ncc2c(n1)n(C1CCOCC1)c(=O)n2C [AZD7648] + O=C(c1cc(Cc2n[nH]c(=O)c3ccccc23)ccc1F)N1CCN(C(=O)C2CC2)CC1 [Olaparib] (first compound max 10 µM, 7x7, partner max 10 µM)	-0.0136	-0.0106	-0.0059	0.0009	-0.0789	0.0295	-0.0816	0.003	-0.0149	-0.0413	-0.0504	-0.0164	-0.0584	-0.0011	-0.0148	-0.021	-0.0435	-0.0373	-0.0274	0.0107
